Species: Rattus norvegicus
Test: Open TG-GATES - Regimen: Single
Type: toxicity, organism-based, Sprague-Dawley
Set-up: regimen Single, gender Male, age 6 weeks
Settings: in vivo, po, route gavage; for Bas / Eos / Fbg / Hb / Ht / Lym / MCH / MCHC / MCV / Mono / Neu / PT / Plat / RBC / Ret / WBC: tissue Blood; for KIDNEY_L / KIDNEY_R / KIDNEY_TOTAL: tissue Kidney; for LIVER: tissue Liver; for ALP / ALT / AST / BUN / CRE / Ca / Cl / DBIL / GLC / IP / K / LDH / Na / PL / RALB / TBIL / TC / TG / TP / gamma-GTP: tissue Plasma
[1] = 150 mg/kg, 3 h, dose level Middle
[2] = 150 mg/kg, 6 h, dose level Middle
[3] = 150 mg/kg, 9 h, dose level Middle
[4] = 150 mg/kg, 24 h, dose level Middle

## CN(C)CCCN1c2ccccc2Sc2ccc(Cl)cc21 [CHLORPROMAZINE]
45 mg/kg, 9 h, dose level Low
  TERMINAL_BW: 211.4 g
  Bas: 0%
  Eos: 1%
  Fbg: 219.2 mg/dL
  Hb: 12.8 g/dL
  Ht: 37.4%
  Lym: 76.6%
  MCH: 21.4 pg
  MCHC: 34.1%
  MCV: 62.7 fL
  Mono: 2.8%
  Neu: 18.8%
  PT: 12.3 s
  Plat: 128.5 x10_4/uL
  RBC: 596.6 x10_4/ul
  Ret: 8%
  WBC: 53.8 x10_2/uL
  KIDNEY_L: 0.9 g
  KIDNEY_R: 0.9 g
  KIDNEY_TOTAL: 1.8 g
  LIVER: 9.1 g
  ALP: 807.4 IU/L
  ALT: 28.2 IU/L
  AST: 63.2 IU/L
  BUN: 9.4 mg/dL
  CRE: 0.4 mg/dL
  Ca: 10.4 mg/dL
  Cl: 106.4 meq/L
  DBIL: 0.07 mg/dL
  GLC: 263.8 mg/dL
  IP: 9.6 mg/dL
  K: 3.6 meq/L
  LDH: 215.6 IU/L
  Na: 143.4 meq/L
  PL: 147.2 mg/dL
  RALB: 3.4 g/dL
  TBIL: 0.1 mg/dL
  TC: 84.4 mg/dL
  TG: 14 mg/dL
  TP: 5.6 g/dL
  gamma-GTP: 0.8 IU/L
45 mg/kg, 24 h, dose level Low
  TERMINAL_BW: 211.2 g
  Bas: 1%
  Eos: 0.8%
  Fbg: 213.6 mg/dL
  Hb: 14.3 g/dL
  Ht: 42%
  Lym: 77.8%
  MCH: 21.7 pg
  MCHC: 33.9%
  MCV: 64.1 fL
  Mono: 2.4%
  Neu: 17.6%
  PT: 11.7 s
  Plat: 137.7 x10_4/uL
  RBC: 656.8 x10_4/ul
  Ret: 7.5%
  WBC: 87 x10_2/uL
  KIDNEY_L: 1 g
  KIDNEY_R: 1 g
  KIDNEY_TOTAL: 2 g
  LIVER: 9.2 g
  ALP: 861 IU/L
  ALT: 35.8 IU/L
  AST: 84 IU/L
  BUN: 21.8 mg/dL
  CRE: 0.5 mg/dL
  Ca: 10.7 mg/dL
  Cl: 104.6 meq/L
  DBIL: 0.062 mg/dL
  GLC: 217.8 mg/dL
  IP: 8.9 mg/dL
  K: 3.8 meq/L
  LDH: 239.4 IU/L
  Na: 144 meq/L
  PL: 132.2 mg/dL
  RALB: 3.7 g/dL
  TBIL: 0.1 mg/dL
  TC: 70.8 mg/dL
  TG: 76.4 mg/dL
  TP: 5.9 g/dL
  gamma-GTP: 1 IU/L
[1]
  TERMINAL_BW: 221.2 g
  Bas: 0%
  Eos: 0.8%
  Fbg: 211.2 mg/dL
  Hb: 12.6 g/dL
  Ht: 37.6%
  Lym: 73.4%
  MCH: 21.3 pg
  MCHC: 33.5%
  MCV: 63.4 fL
  Mono: 2.6%
  Neu: 22.2%
  PT: 12.4 s
  Plat: 120.3 x10_4/uL
  RBC: 593.4 x10_4/ul
  Ret: 8.4%
  WBC: 49.8 x10_2/uL
  KIDNEY_L: 0.9 g
  KIDNEY_R: 0.9 g
  KIDNEY_TOTAL: 1.8 g
  LIVER: 9.9 g
  ALP: 942 IU/L
  ALT: 33.4 IU/L
  AST: 71.4 IU/L
  BUN: 10.8 mg/dL
  CRE: 0.4 mg/dL
  Ca: 10.9 mg/dL
  Cl: 105.6 meq/L
  DBIL: 0.062 mg/dL
  GLC: 229.6 mg/dL
  IP: 10.3 mg/dL
  K: 3.8 meq/L
  LDH: 212.2 IU/L
  Na: 145.2 meq/L
  PL: 132.2 mg/dL
  RALB: 3.4 g/dL
  TBIL: 0.1 mg/dL
  TC: 69.8 mg/dL
  TG: 61.8 mg/dL
  TP: 5.4 g/dL
  gamma-GTP: 1 IU/L
[2]
  TERMINAL_BW: 215.2 g
  Bas: 0%
  Eos: 1%
  Fbg: 209.8 mg/dL
  Hb: 12.4 g/dL
  Ht: 36.4%
  Lym: 73%
  MCH: 21 pg
  MCHC: 34.2%
  MCV: 61.6 fL
  Mono: 2.4%
  Neu: 23%
  PT: 12.7 s
  Plat: 122.6 x10_4/uL
  RBC: 591.2 x10_4/ul
  Ret: 7.9%
  WBC: 46.9 x10_2/uL
  KIDNEY_L: 0.9 g
  KIDNEY_R: 1 g
  KIDNEY_TOTAL: 1.9 g
  LIVER: 9.4 g
  ALP: 685.2 IU/L
  ALT: 29.4 IU/L
  AST: 67.2 IU/L
  BUN: 9.4 mg/dL
  CRE: 0.4 mg/dL
  Ca: 10.4 mg/dL
  Cl: 105.6 meq/L
  DBIL: 0.064 mg/dL
  GLC: 246.2 mg/dL
  IP: 10.5 mg/dL
  K: 3.5 meq/L
  LDH: 214.6 IU/L
  Na: 144.4 meq/L
  PL: 127.6 mg/dL
  RALB: 3.3 g/dL
  TBIL: 0.1 mg/dL
  TC: 72.6 mg/dL
  TG: 26.2 mg/dL
  TP: 5.3 g/dL
  gamma-GTP: 0.8 IU/L
[3]
  TERMINAL_BW: 211.5 g
  Bas: 0%
  Eos: 1%
  Fbg: 222.4 mg/dL
  Hb: 12.4 g/dL
  Ht: 36.9%
  Lym: 71.8%
  MCH: 21.1 pg
  MCHC: 33.7%
  MCV: 62.7 fL
  Mono: 4%
  Neu: 20%
  PT: 12.7 s
  Plat: 126.5 x10_4/uL
  RBC: 590.6 x10_4/ul
  Ret: 8.3%
  WBC: 40.7 x10_2/uL
  KIDNEY_L: 0.9 g
  KIDNEY_R: 0.9 g
  KIDNEY_TOTAL: 1.8 g
  LIVER: 8.8 g
  ALP: 813.8 IU/L
  ALT: 29 IU/L
  AST: 64.2 IU/L
  BUN: 10.6 mg/dL
  CRE: 0.4 mg/dL
  Ca: 10.6 mg/dL
  Cl: 105.6 meq/L
  DBIL: 0.07 mg/dL
  GLC: 237.8 mg/dL
  IP: 10.8 mg/dL
  K: 3.6 meq/L
  LDH: 171.4 IU/L
  Na: 143.2 meq/L
  PL: 136.6 mg/dL
  RALB: 3.4 g/dL
  TBIL: 0.1 mg/dL
  TC: 81 mg/dL
  TG: 17.6 mg/dL
  TP: 5.4 g/dL
  gamma-GTP: 1 IU/L
[4]
  TERMINAL_BW: 194.9 g
  Bas: 0.4%
  Eos: 1%
  Fbg: 215.4 mg/dL
  Hb: 13.6 g/dL
  Ht: 39.9%
  Lym: 69.2%
  MCH: 21.3 pg
  MCHC: 34.2%
  MCV: 62.3 fL
  Mono: 5.2%
  Neu: 23.2%
  PT: 11.4 s
  Plat: 152.2 x10_4/uL
  RBC: 640.4 x10_4/ul
  Ret: 7.1%
  WBC: 43.7 x10_2/uL
  KIDNEY_L: 0.9 g
  KIDNEY_R: 0.9 g
  KIDNEY_TOTAL: 1.8 g
  LIVER: 7.8 g
  ALP: 873.2 IU/L
  ALT: 24.6 IU/L
  AST: 82 IU/L
  BUN: 14.2 mg/dL
  CRE: 0.4 mg/dL
  Ca: 10.5 mg/dL
  Cl: 104.4 meq/L
  DBIL: 0.072 mg/dL
  GLC: 239 mg/dL
  IP: 10.6 mg/dL
  K: 3.7 meq/L
  LDH: 257.2 IU/L
  Na: 144.8 meq/L
  PL: 138 mg/dL
  RALB: 3.6 g/dL
  TBIL: 0.1 mg/dL
  TC: 77.6 mg/dL
  TG: 21.2 mg/dL
  TP: 5.8 g/dL
  gamma-GTP: 0.8 IU/L

Source: ChEMBL document CHEMBL3885861, “Open TG-GATES”
